Values of other authors as cited in patent US20090239872A1, “TREATMENT OF MESOTHELIOMA” (priority 2002, published 2009).

Tests used:
Details in all cases: qualitative statement
Flt-1 = Flt-1 (Homo sapiens, UniProt P17948)
c-Kit = c-Kit (Homo sapiens, UniProt P10721)
Flt-4 = Flt-4 (Homo sapiens, UniProt P35916)
Flt-4, sequence (P35916 25-1363, species assumed): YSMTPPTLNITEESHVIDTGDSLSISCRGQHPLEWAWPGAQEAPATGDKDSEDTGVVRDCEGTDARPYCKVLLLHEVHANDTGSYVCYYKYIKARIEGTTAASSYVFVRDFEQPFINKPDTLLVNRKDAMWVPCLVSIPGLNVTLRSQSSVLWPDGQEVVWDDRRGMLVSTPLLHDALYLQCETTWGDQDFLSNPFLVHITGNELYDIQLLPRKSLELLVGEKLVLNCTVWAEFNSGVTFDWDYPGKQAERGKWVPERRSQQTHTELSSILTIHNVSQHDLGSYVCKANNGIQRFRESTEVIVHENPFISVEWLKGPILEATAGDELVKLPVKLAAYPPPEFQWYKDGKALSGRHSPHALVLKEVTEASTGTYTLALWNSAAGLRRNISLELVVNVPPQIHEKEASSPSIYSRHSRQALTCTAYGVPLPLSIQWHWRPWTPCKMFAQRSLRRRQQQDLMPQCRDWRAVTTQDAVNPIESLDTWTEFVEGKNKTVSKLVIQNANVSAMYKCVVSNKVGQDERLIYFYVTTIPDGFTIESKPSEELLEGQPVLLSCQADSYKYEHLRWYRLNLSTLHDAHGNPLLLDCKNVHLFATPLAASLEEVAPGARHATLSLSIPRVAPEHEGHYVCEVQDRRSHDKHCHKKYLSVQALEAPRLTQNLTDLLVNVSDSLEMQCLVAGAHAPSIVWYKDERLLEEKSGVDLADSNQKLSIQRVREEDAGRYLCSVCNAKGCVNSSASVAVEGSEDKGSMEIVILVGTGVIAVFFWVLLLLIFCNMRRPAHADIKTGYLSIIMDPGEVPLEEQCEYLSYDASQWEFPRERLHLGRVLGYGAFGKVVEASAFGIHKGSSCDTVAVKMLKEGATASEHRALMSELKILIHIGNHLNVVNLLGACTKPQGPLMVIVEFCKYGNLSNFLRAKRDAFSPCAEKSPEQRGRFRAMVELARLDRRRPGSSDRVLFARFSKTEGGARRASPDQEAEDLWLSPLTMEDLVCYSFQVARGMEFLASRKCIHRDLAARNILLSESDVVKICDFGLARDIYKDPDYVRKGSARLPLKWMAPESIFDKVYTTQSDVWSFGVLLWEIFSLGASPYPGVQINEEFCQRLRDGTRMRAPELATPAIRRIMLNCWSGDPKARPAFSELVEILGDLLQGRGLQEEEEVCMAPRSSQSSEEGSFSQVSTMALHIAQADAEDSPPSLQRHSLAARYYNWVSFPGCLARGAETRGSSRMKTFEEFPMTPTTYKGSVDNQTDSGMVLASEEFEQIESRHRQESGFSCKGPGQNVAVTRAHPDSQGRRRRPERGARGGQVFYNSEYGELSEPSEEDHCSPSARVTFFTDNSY

c-Kit, sequence (P10721 26-976): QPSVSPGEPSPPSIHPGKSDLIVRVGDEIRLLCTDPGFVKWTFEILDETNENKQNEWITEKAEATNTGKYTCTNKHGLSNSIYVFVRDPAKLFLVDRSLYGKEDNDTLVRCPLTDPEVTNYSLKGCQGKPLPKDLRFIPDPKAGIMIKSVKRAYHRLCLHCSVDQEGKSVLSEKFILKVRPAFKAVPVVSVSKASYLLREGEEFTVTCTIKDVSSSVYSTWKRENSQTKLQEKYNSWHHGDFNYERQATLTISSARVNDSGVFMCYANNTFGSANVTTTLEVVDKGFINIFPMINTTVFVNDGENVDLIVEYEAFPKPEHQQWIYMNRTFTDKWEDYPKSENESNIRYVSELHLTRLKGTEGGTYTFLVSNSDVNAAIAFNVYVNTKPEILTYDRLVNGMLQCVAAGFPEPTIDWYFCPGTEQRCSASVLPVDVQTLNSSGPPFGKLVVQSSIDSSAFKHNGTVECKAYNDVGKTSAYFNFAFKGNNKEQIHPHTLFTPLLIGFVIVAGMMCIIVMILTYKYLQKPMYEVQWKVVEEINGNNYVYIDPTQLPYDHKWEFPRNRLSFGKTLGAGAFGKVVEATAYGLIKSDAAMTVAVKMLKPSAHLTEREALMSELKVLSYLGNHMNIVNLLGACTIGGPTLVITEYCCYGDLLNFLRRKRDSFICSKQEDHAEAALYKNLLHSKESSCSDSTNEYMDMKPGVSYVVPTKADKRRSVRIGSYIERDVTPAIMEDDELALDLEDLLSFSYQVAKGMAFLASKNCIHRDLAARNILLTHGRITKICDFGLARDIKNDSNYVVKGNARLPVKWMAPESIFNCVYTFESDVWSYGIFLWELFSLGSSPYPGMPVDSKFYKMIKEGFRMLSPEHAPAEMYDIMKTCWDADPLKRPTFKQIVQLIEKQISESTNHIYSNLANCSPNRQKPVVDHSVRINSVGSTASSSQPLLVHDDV
Flt-1, sequence (P17948 27-1338, species assumed): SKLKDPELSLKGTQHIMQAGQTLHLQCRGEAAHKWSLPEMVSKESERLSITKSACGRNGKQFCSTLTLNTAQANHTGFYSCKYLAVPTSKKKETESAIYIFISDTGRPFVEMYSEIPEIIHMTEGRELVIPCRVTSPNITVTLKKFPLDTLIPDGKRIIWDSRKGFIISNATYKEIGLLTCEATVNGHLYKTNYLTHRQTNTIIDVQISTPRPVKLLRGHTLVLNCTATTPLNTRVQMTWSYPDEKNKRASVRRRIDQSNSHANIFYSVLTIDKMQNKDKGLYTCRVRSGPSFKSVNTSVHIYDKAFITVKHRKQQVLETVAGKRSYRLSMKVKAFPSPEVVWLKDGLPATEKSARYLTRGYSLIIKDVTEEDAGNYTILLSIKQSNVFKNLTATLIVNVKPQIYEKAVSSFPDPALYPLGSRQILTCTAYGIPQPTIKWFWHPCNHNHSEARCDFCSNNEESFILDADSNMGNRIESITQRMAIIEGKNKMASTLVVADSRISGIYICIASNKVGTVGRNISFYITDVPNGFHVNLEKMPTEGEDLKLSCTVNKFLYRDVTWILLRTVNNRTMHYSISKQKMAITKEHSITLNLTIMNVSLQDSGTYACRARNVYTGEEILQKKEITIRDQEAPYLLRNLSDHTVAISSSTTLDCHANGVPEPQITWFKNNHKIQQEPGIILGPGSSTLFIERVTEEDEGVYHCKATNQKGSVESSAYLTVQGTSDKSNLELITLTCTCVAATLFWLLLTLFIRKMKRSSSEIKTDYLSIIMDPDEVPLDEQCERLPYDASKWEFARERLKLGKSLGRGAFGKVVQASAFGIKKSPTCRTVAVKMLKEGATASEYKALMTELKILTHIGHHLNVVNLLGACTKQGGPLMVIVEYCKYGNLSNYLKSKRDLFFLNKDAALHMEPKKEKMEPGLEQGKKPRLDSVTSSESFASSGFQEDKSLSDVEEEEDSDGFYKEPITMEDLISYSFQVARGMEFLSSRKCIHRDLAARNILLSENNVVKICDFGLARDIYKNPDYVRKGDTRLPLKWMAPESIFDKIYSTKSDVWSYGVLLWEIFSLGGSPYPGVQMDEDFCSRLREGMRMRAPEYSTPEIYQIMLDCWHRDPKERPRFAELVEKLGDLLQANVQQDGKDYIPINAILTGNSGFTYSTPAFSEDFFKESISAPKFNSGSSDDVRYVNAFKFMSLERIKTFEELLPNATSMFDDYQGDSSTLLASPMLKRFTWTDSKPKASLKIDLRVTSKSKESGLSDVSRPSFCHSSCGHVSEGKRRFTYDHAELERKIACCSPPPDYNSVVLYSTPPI

SMILES: Clc1ccc(Nc2nnc(Cc3ccncc3)c3ccccc23)cc1 [ZK222584, 1-(4-chloroanilino)-4-(4-pyridylmethyl)phthalazine]
- inhibition of Flt-1 (Flt-1): can also inhibit
- activity against c-Kit (c-Kit): has activity
- inhibition of Flt-4 (Flt-4): can also inhibit
